Measured values: paper PMC4912613, “A broad analysis of resistance development in the malaria parasite” (Nature Communications, 2016)
Read-outs that look alike come from different tables or passages of the source.

Legend:
[1] = test system: GNF156R (PfCARL L830V, S1076I and M81I, parent Dd2); assay: Cross-resistance EC50 assay, GNF156R; assay type: cell-based; conditions: Plasmodium falciparum, SYBR green 72 hour assay, asynchronized parasites, 96-well or 1536-well format
Excerpt: (§1) To evaluate potential overlapping activity against known antimalarial drug targets, we performed dose-response studies with each compound against our assembled set of drug-resistant lines and their corresponding parents, in an asexual blood stage proliferation assay (Table 1). Comparisons were made to the drug-sensitive strain 3D7 when a parent was unavailable (TM90C2A, W2 and Dd2). As laboratories conducted EC50 assays with different strains and protocols, all comparisons were made between assays from the same laboratory and under the same assay conditions. Compounds displaying >5-fold EC50 shifts relative to the parent or sensitive strain were flagged as having potentially non-novel targets. Average fold shifts per strain ranged from 0.82 to 2.34, with a median of 1.23 indicating there was not common resistance to any one resistant clone. No resistance patterns were observed when classifying the compounds based on chemical structure, but this was not surprising given the diversity of compounds chosen. On the other hand, given that these confirmed compounds were derived from larger unconfirmed hit lists to which some filtration criteria may have been applied (for example, elimination of obvious dihydrofolate reductase inhibitors[32]), some[10][11][12][13] pre-existing bias may exist in the set. […]
(§2) Alternatively, a SYBR Green-based proliferation approach was used for the 72-h assay, as previously described. Briefly, a culture of either synchronized or asynchronous parasitized RBCs (0.3% parasitemia and 4% haematocrit) in screening medium (identical to supplemented medium above except no serum was added) was exposed to serial drug dilutions. Plates were incubated at 37 °C and gassed with 93% N2, 4% CO2 and 3% O2 for 72 h. Following incubation, 10 × SYBR Green I (Invitrogen; supplied in 10,000 × concentration) in lysis buffer ([…], 5 mM EDTA, 0.16% Saponin wt per vol and 1.6% Triton X vol per vol) was added to the wells and the plates were incubated overnight at room temperature before plate reading. EC50 assays were repeated three times, taking the average EC50 value from each assay set, and removing any outliers using a single iteration of Grubbs' test, eliminating values with z-scores above the critical z-value (α=0.05). The raw EC50 values for synchronized parasites assayed in a 384-well format are listed in Supplementary Data 4. The raw EC50 values for asynchronous parasites assayed in a 96 or 1536-well format are listed in Supplementary Data 5.
(§3) EC50 values for each strain were compared with those of the corresponding parent strain to determine fold-shift changes and identify resistance. To minimize the cause variance between assays, all comparisons were conducted between strains assayed under identical conditions. A one-way ANOVA followed by a Dunnet's post-test was conducted in GraphPad Prism to identify significant changes between the parent and resistant strain.

[2] = test system: P. falciparum strain 3D7; assay: Asexual blood stage 3H-hypoxanthine incorporation assay, 3D7; assay type: cell-based, Plasmodium falciparum; conditions: Plasmodium falciparum
Experimental: The 48-h assay was carried out in a 96-well format following standard methods using the ^3H-hypoxanthine incorporation assay. The raw EC50 values corresponding to this assay can be found in Supplementary Data 3. Briefly, this assay relies on the parasite incorporation of labelled hypoxanthine that is proportional to P. falciparum growth. A culture of parasitized RBCs (0.5% parasitemia with a percentage of ring stage higher than 70% of total parasitemia, 2.0% haematocrit) in RPMI-1640, […] and 5 μM hypoxanthine was exposed to drug serial dilutions. Plates were incubated for 24 h at 37 °C, 5% CO2, 5% O2 and 90% N2. After 24 h of incubation, ^3H-hypoxanthine was added and plates were incubated for an additional 24-h period. After that, parasites were harvested on a glass fibre filter using a TOMTEC Cell Harvester 96. Filters were dried and melt-on scintillator sheets were used to determine the incorporation of ^3H-hypoxanthine. Radioactivity was measured using a microbeta counter. Data were normalized using the incorporation of the positive (parasitized RBCs without drug) and negative (same culture with artesunate at 2 μM) controls. All assays were conducted in triplicate using three independently grown cultures, and EC50 values were determined using the XLfit add-in module for Excel (version 2.3.1) from Grafit (version 5.3.1.3), where parameter h is the assay hill slope, x is the compound concentration and y is the inhibition of growth effect. The XLfit equation is: […]

[3] = test system: CYTbQi (cytb G33A, parent Dd2); assay: Cross-resistance EC50 assay, CYTbQi; assay type: cell-based; conditions: Plasmodium falciparum; SYBR green 72 hour assay; synchronized parasites; 384-well format; strain CYTbQi (Dd2 parent)
Excerpt: as §1, §2, §3

[4] = test system: Dd2; assay: Cross-resistance EC50 assay, Dd2 parent; assay type: cell-based, Plasmodium falciparum; conditions: Plasmodium falciparum, DD2, 72 h
Excerpt: Multidrug resistance alleles, including mutations in P. falciparum chloroquine resistance transporter (pfcrt) and P. falciparum multi-drug resistance transporter 1 (pfmdr1) are very common in field isolates. Therefore, we sought to assess the degree to which pre-existing resistance alleles would contribute to a loss of potency for this diverse collection of small molecule compounds. Fifteen clones derived from three main parent lines were chosen to maximize diversity in mutated pathways and genetic backgrounds, thus representing the variety of resistance seen in the field: 3D7 (ref. [23]), W2 (ref. [24]) or Dd2 (ref. [25]). The 3D7 line originates from the clone of a Netherlands clinical isolate strain[23][26] and is generally considered to be drug sensitive, though it does convey resistance to sulfadoxine. Conversely, W2 (ref. [24], [27]) and Dd2 (ref. [25]) are multi-drug-resistant lines originating from the Indochina III/CDC isolate, which contain point mutations in pfcrt as well as amplifications in pfmdr1 and GTP cyclohydrolase.
as §1, §2, §3

[5] = test system: GNF449-R2 (PfATP4 I203L and P990R, parent Dd2); assay: Cross-resistance EC50 assay, GNF449-R2; assay type: cell-based; conditions: Plasmodium falciparum, SYBR green 72 hour assay, asynchronized parasites, 96-well or 1536-well format
Excerpt: as §1, §2, §3

[6] = test system: ProRS (prolyl t-RNA synthetase L482H, parent Dd2); assay: Cross-resistance EC50 assay, ProRS; assay type: cell-based; conditions: Plasmodium falciparum; SYBR green 72 hour assay; synchronized parasites; 384-well format; strain ProRS (Dd2 parent)
Excerpt: as §1, §2, §3

[7] = test system: HepG2; assay: Hepatocyte toxicity; assay type: cell-based, human; conditions: for Hepatocyte Toxicity: HepG2; for Liver Stage / Hepatocyte Toxicity: toxicity fold shift for the liver stage (hepatocyte toxicity vs liver stage EC50); for EC50 fold shift compared to asexual stage: Hepatocyte Toxicity: hepatocyte toxicity / 3D7 EC50
Summary of the method: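 Duplicate 12-point dose curves, starting at 5 μM or 50 μM, gave EC50s for both parasite and host toxicity. Compound was added to human HepG2 hepatocytes 2 h before infection with freshly dissected P. berghei sporozoites. Surviving liver-stage forms were quantified by luminescence after 48 h.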

[8] = 3D7, asexual stage, P. falciparum 3D7, read-out: 3D7 EC50
[9] = read-out: Dd2 (PARENT) Average EC50
[10] = read-out: Dd2 (PARENT) EC50 (µM) Average EC50

| Compound | EC50 [1] [µM] | EC50 [2, 8] [nM] | EC50 [3] [nM] | EC50 [4, 9] [µM] | EC50 [4, 10] [µM] | EC50 [5] [µM] | EC50 [6] [nM] | Hepatocyte Toxicity [7] [µM] | Liver Stage / Hepatocyte Toxicity [7] | EC50 fold shift compared to asexual stage: Hepatocyte Toxicity [7] | EC50 ([2]; 3D7, text value, read-out: asexual stage EC50) [nM] |
| --- | --- | --- | --- | --- | --- | --- | --- | --- | --- | --- | --- |
| CN(C)Cc1ccc(-c2cc3c(-c4ccc(CN(C)C)cc4)ccnc3[nH]2)cc1.O=C(O)C(F)(F)F [MMV022224] | 0.429 | 388 | 327 | 0.41 | 0.302 | 0.518 | 294 | 2.32 | 2.90 | – | – |
| Nc1ncc(-c2cn[nH]c2)cc1-c1nc2ccc(F)cc2[nH]1 [MMV023367] | 2.54 | 302 | 626 | 0.654 | 1.96 | 2.66 | 517 | 4.228 | 6.92 | 14.00 | – |
| CN(C)S(=O)(=O)c1cc(-c2ccc3nccc(-c4cccc(S(N)(=O)=O)c4)c3c2)cnc1N [MMV024038] | 0.861 | – | 164 | 0.106 | 0.509 | 1 | 143 | 0.1461 | 13.52 | 0.64 | 228 |
| Cc1ccc(S(=O)(=O)n2cc(-c3ccnc(N)c3)c3cc(Br)cnc32)cc1 [MMV024114] | 2.9 | 265 | 1380 | 0.766 | 1.64 | 3.34 | 669 | 9.39 | 1.58 | 35.43 | – |
| CNCc1ccc2nc(-c3coc(Cc4cc(Cl)ccc4OCC(C)C)n3)[nH]c2c1.Cl.Cl [MMV026596] | 0.414 | 346 | 431 | 0.347 | 0.158 | 0.307 | 349 | 13.42 | 2.07 | 38.79 | – |
| COc1cc(-c2nc(-c3ccccc3)c(-c3ccccc3)[nH]2)ccc1OCCN(C)C [MMV027496] | 1.8 | 111 | 317 | 0.304 | 0.74 | 2.33 | 311 | 13.49 | 4.25 | 121.53 | – |
| CC(C)c1cccc(C(NC(=O)C2Cc3ccccc3CN2C(=O)c2cccc(N3CCOCC3)c2)C2CCCC2)c1 (stereo not shown) [MMV028038] | 0.654 | 540 | 339 | 0.299 | 0.622 | 0.555 | 297 | 19.24 | 3.59 | 35.63 | – |
| O=C(NCC(CCCN1CCC(c2c[nH]c3ccccc23)CC1)c1ccccc1)Nc1ccc(Cl)c(Cl)c1 (stereo not shown) [MMV029272] | 0.332 | 136 | 619 | 0.824 | 0.285 | 0.373 | 592 | 5.366 | 2.98 | 39.46 | – |
| CC(C)(C)OC(=O)N1CCN(c2ccccc2NC(=O)c2cccc(C(F)(F)F)c2Oc2ccc(F)cc2)CC1 [MMV030666] | 0.364 | 486 | 352 | 0.374 | 0.255 | 0.248 | 284 | 10.17 | 16.60 | 20.93 | – |
| CC(NCc1ccccc1)c1cc(Cl)ccc1O (stereo not shown) [MMV665789] | 0.681 | 1250 | 674 | 0.482 | 0.333 | 0.201 | 334 | > 5 | – | > 4 | – |
| FC(F)(F)c1cccc(Nc2nc3ccccc3nc2Nc2cccc(C(F)(F)F)c2)c1 [MMV665794] | 0.135 | 100 | 128 | 0.113 | 0.199 | 0.37 | 93 | 1.374 | 3.67 | – | – |
| O=C(Nc1ccc(Cl)c(Cl)c1)Nc1ccc(Cl)c(Cl)c1 [MMV665852] | 0.75 | 1170 | 1010 | 0.894 | 1.8 | 1.95 | 716 | 2.594 | 7.56 | – | – |
| OC(CNC1CCCCC1)Cn1c2ccc(I)cc2c2cc(I)ccc21 (stereo not shown) [MMV665882] | 0.068 | 72.7 | 25 | 0.05 | 0.038 | 0.028 | 25 | 13.25 | 4.34 | 182.26 | – |
| O=C(Nc1ccccc1O)c1ccc(Oc2cccc(C(=O)Nc3ccccc3O)c2)cc1 [MMV665888] | 0.67 | 1210 | 601 | 0.623 | 0.66 | 0.972 | 495 | 4.362 | 6.73 | 3.60 | – |
| COc1ccc(C(=O)C2CC2c2ccc(Cl)cc2)cc1 (stereo not shown) [MMV665924] | 1.17 | 820 | 1130 | 1.19 | 1.58 | 1.29 | 966 | > 5 | – | > 6 | – |
